Laboratory results published in PubChem BioAssay AID179 (DTP/NCI, 2004).
Active and inactive are the calls of the source.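 How the source made its calls: active means compounds giving half or more protection of infected cells from virus-caused growth loss, again on retest; inactive means the rest.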

Tested on: CEM cells HIV-1 protection, formazan growth assay
Test: NCI AIDS Antiviral Assay
Settings: for IC50: measured here: growth of uninfected CEM cells
Procedure, shortened: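 CEM (human) cells, HIV-1 infected vs uninfected, 5-point dosing, formazan growth read-out. Retest threshold 50% protection.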

Compound | EC50 | IC50 | outcome
[O]=[Sb]([OH])([OH])[c]1ccc(Br)cc1 | > 200 µM | 35.5 µM | –
COc1ccc(/C=N/NS(=O)(=O)c2ccc(NC(C)=O)cc2)cc1 | > 525 µM | > 525 µM | –
CC(C)Cc1cnc(CC(C)C)c(-c2cc3ccccc3[nH]2)n1 | > 8.91 µM | > 8.91 µM | –
CC12CCc3ccccc3C1=NNC(=O)C2 (configuration not stated) | > 170 µM | > 170 µM | –
O=C1CCC2(c3ccc(Cl)cc3)Nc3ccncc3N12 (configuration not stated) | > 631 µM | 91.2 µM | –
Cn1c(=O)nc2n(-c3ccc(Cl)c(C(F)(F)F)c3)c3ccccc3nc-2c1=O | – | – | inactive
S=C1SC(=Nc2ccccc2)C(=Nc2ccccc2)N1c1ccc2ccccc2c1 | > 200 µM | 14.1 µM | –
C=CCOC(=O)C1(C)C(=O)CCC1CC/C=C/C(C)=O (configuration not stated) | > 129 µM | 6.03 µM | –
OCC1CCCC1O (configuration not stated) | – | – | inactive
CCOC(=O)CCCc1cc[c]([Sb](=[O])([OH])[OH])cc1 | > 200 µM | 72.4 µM | –
Cc1nn(C(=O)c2ccc(Cl)cc2)c2c1C(c1ccccc1O)SC(N)=N2 (configuration not stated) | > 200 µM | 107 µM | –
CC1=NN(C(=O)CC(=O)Nc2cccc(Cl)c2)C(=O)C1N=Nc1ccc(S(=O)(=O)c2ccc(N=NC3C(=O)N(C(=O)CC(=O)Nc4cccc(Cl)c4)N=C3C)cc2)cc1 (configuration not stated) | > 100 µM | > 100 µM | –
C=CCn1c(-c2ccc(Cl)cc2Cl)csc1=Nc1c(C)n(C)n(-c2ccccc2)c1=O | > 200 µM | 6.61 µM | –
NS(=O)(=O)c1ccc(CNC(=O)c2ccccc2SC(=O)OCCCCCl)cc1 | 4.68 µM | 129 µM | –
CC(/C=C/C=C/C=C/C=C/C=C/C(O)=C1/C(=O)C(CCC(=O)O)N(C)C1=O)=C\C(C)C(OC1CC(O)C(O)C(C)O1)C(C)C (configuration not stated) | – | – | inactive
CN(C)CCN(C(=Nc1ccccc1)N1CCCC1)c1ccccc1 | > 200 µM | 8.32 µM | –
NNC(=S)SSC(=S)NN | > 200 µM | 21.9 µM | –
O=C1[C@@H]2C(c3ccncc3)=NO[C@@H]2C(=O)N1c1ccc(Cc2ccc(N3C(=O)[C@H]4C(c5ccncc5)=NO[C@H]4C3=O)cc2)cc1 | > 12 µM | > 12 µM | –
C=CCCCC1(C)CCNC1=S (configuration not stated) | > 513 µM | > 513 µM | –
Cn1nccc2c(=O)n(C)c(=O)nc1-2 | > 200 µM | > 200 µM | –
COc1cccc(CN2CCN(/N=C/c3c4c(O)c5c(O)c(C)c6c(c5c3O)C(=O)C(C)(O/C=C/C(OC)C(C)C(OC(C)=O)C(C)C(O)C(C)C(O)C(C)/C=C/C=C(C)C(=O)N4)O6)CC2)c1 (configuration not stated) | > 200 µM | 6.61 µM | –
O=C(O)c1ccccc1/C=N\NC1=NCCN1 | 69.2 µM | 115 µM | –
CC1(C)N=C(/C=N/O)C(C)(C)N1O | > 200 µM | > 200 µM | –

Compound | EC50 | IC50 | outcome
C/C(=N/NC(=S)NCCc1ccccn1)c1cnccn1 | > 200 µM | 8.71 µM | –
CC1=CCCC(C)C1(C)CC/C(C)=C/CC/C(=C/CS(=O)(=O)CCN=C(N)N)CO (configuration not stated) | > 81.3 µM | 15.1 µM | –
COc1ccc(/C=C/C(=O)/C=C/c2ccc(OC)cc2OC)c(OC)c1 | > 200 µM | 3.89 µM | –
COc1nc(NC2OC(COC(C)=O)C(OC(C)=O)C(OC(C)=O)C2OC(C)=O)c(N=CC=Nc2c(NC3OC(COC(C)=O)C(OC(C)=O)C(OC(C)=O)C3OC(C)=O)nc(OC)n(C)c2=O)c(=O)n1C (configuration not stated) | – | – | inactive
O=C1C(=Cc2ccc([N+](=O)[O-])cc2)C(=O)c2ccccc21 | > 49 µM | 11.7 µM | –
CCCN1C(=O)CN(S(=O)(=O)c2ccc(Cl)cc2)C1=O | > 200 µM | > 200 µM | –
O=C(O)c1cccc(Nc2ccccc2C(=O)O)c1 | > 513 µM | > 513 µM | –
COc1cc(C2c3cc4c(cc3OC(N3CCCCC3)C2C)OCO4)cc(OC)c1O (configuration not stated) | > 200 µM | 7.59 µM | –
O=c1[nH][nH]c(=O)c2c1ccc1oc3ccccc3c12 | > 200 µM | > 200 µM | –
COc1cccc([C@@]2(O)c3c(ccc(O)c3OC)[C@H]2OC)c1OC | > 15.8 µM | > 15.8 µM | –
CSc1nc(-c2ccccc2)nc(=[N+]2CCOCC2)s1 | > 417 µM | 234 µM | –
CCOC(=O)/C=C1\CONC(c2ccc(OC)cc2)=N1 | > 19.1 µM | > 19.1 µM | –
NC1=NN(c2ccccc2)C(=O)C1/C(=N\NC(=O)c1cc2ccccc2cc1O)C(=O)Nc1nc([N+](=O)[O-])cs1 (configuration not stated) | > 12.9 µM | > 12.9 µM | –
COc1cccc(C2=NC(C(C)(C)C)CO2)c1-c1ccccc1C1OCCO1 (configuration not stated) | > 339 µM | > 339 µM | –
N#C/C(=C\c1ccccc1Cl)c1ccccc1 | > 200 µM | 72.4 µM | –
COCc1cc2c(cc1/C=C/[N+](=O)[O-])OCO2 | > 200 µM | 2.95 µM | –
CN1CC2(CCCCC2)C(O)C12C=CCCC2 (configuration not stated) | > 380 µM | > 380 µM | –
O=C(/C=C1/Nc2ccc([N+](=O)[O-])cc2NC1O)c1cccc([N+](=O)[O-])c1 (configuration not stated) | > 20.4 µM | > 20.4 µM | –
OC1CC(c2ccccc2)Oc2ccccc21 (configuration not stated) | – | – | inactive
CCOC(=O)C12C(C(=O)O)=C(N)CN1CCc1c2[nH]c2ccccc12 (configuration not stated) | > 58.9 µM | > 58.9 µM | –
CSC(=Nc1ccc(Br)cc1)NC(=O)c1cc([N+](=O)[O-])cc([N+](=O)[O-])c1 | > 200 µM | 34.7 µM | –
C/C=C/C=C/c1nc(C#N)c(N)o1 | > 200 µM | 85.1 µM | –
CO/N=C(\C)CCC#Cc1ccccc1C(=O)OC | > 200 µM | > 200 µM | –

Compound | EC50 | IC50 | outcome
CC(NC(=O)C1CCCN1C(=O)OCc1ccccc1)C(=O)O (configuration not stated) | > 776 µM | > 776 µM | –
CCOC(=O)C1=C(NC(C)(C)C)OC/C1=N\NC(=O)Cc1ccccc1 | > 72.4 µM | > 72.4 µM | –
CC(=O)OC1CC2Oc3ccc(C)cc3C(C)(O2)C1=O (configuration not stated) | – | – | inactive
O=C(O)c1cccc(S(=O)(=O)NN2C(=O)CSC2c2ccccc2Cl)c1 (configuration not stated) | > 195 µM | 166 µM | –
CCCCCCCCCCCCCC/C=C\C(CC(=O)O)C(=O)O (configuration not stated) | > 15.1 µM | > 15.1 µM | –
O=c1oc2ccccc2c(O)c1-c1cccc2ccccc12 | – | – | inactive
CC(=O)c1ccc(Br)cc1NC1=CC(=O)c2ncccc2C1=O | > 200 µM | 4.68 µM | –
CN(C)CC/C=C1\c2ccccc2CSc2ccccc21 | > 200 µM | 32.4 µM | –
C=CCN(CCNS(=O)(=O)c1ccc(C)cc1)S(=O)(=O)c1ccc(C)cc1 | > 33.1 µM | > 33.1 µM | –
Cc1cc2c(c3[nH]c4ccccc4c13)C(=O)c1ccccc1C2=O | > 3.39 µM | > 3.39 µM | –
OCC1OC2NC(=S)OC2C(O)C1O (configuration not stated) | > 200 µM | > 200 µM | –
CC1SC2=NC3=C(c4ccccc4C3=O)C(c3ccc(Cl)cc3)N2C1=O (configuration not stated) | > 35.5 µM | > 35.5 µM | –
Cc1cc(N(CCC#N)CCC#N)ccc1N=Nc1ccccc1[N+](=O)[O-] | > 14.5 µM | > 14.5 µM | –
COC(=O)CC(C(C(=O)OCc1ccccc1)C(C)O)N1C(=O)OC(c2ccccc2)C1c1ccccc1 (configuration not stated) | > 251 µM | > 251 µM | –
COc1ccc(NS(=O)c2ccccc2OC)cc1 (configuration not stated) | > 200 µM | 15.1 µM | –
Cc1n[nH]c(=O)n1/N=C/c1ccncc1 | > 200 µM | 102 µM | –
C=CCOC1(CC=C)C(=O)OC2C(O)COC21O (configuration not stated) | > 200 µM | > 200 µM | –
CC(=O)n1c(COc2ccc3c(C)cc(=O)oc3c2)nc2ccccc2c1=O | > 91.2 µM | > 91.2 µM | –
O=[N+]([O-])C1(C[Se]c2cccc(C(F)(F)F)c2)CCCCC1 | – | – | inactive
Cc1ccnc(NC(=S)Nc2cccc(Cl)c2)c1 | 57.5 µM | > 200 µM | –
CCOC(=O)c1cccc([N+](=O)[O-])c1N | > 200 µM | > 200 µM | –
COC(=O)c1cc2c(=O)n(C)c3ccccc3n2c1C(=O)OC | > 56.2 µM | 32.4 µM | –
CSC1(SC)CCCCCCCCCCC1 | > 200 µM | 158 µM | –

Compound | EC50 | IC50 | outcome
O=C(NC1=Nc2c(ncn2COCCO)S(=O)(=O)[N-]1)c1ccccc1.[Ag+] | > 200 µM | 3.55 µM | –
CN1CCC/C1=N\c1scc(-c2ccc(Br)cc2)[n+]1-c1ccccc1 | > 38 µM | 5.75 µM | –
CC(C)=CCN1c2ccccc2NC(=O)CC1C (configuration not stated) | 7.94 µM | 91.2 µM | –
CSCCC(NC(c1ccccc1)c1ccccc1)[P+](=O)O (configuration not stated) | > 200 µM | > 200 µM | –
Oc1ccccc1C1C=C(c2ccccc2)NC(N2CCCCC2)=C1c1nc2ccccc2[nH]1 (configuration not stated) | – | – | inactive
Cc1cc(=O)oc2c(CNC(C)C(=O)O)c(O)ccc12 (configuration not stated) | > 200 µM | 186 µM | –
COc1cc2c(c(OC)c1O)C(=O)CC(c1ccc(O)cc1)O2 (configuration not stated) | > 200 µM | 21.9 µM | –
CC1NCC(O)C(O)C1O (configuration not stated) | > 49 µM | > 49 µM | –
C/C=C/CC1(C(C)C)C(=O)NC(=S)NC1=O | > 200 µM | > 200 µM | –
CN(C)c1ncnc2c1ncn2C1OC(CO)CC1F (configuration not stated) | 141 µM | 178 µM | –
Cc1ccc(Nc2ncnc3sc(SCc4ccccc4)nc23)cc1 | – | – | inactive
N#Cc1c(N=C2CCCCC2)c(C(=O)Nc2ccccc2)n2c1CCCC2 | > 50.1 µM | > 50.1 µM | –
CCSCCCCCCCCCCCC(=O)OCC1OC(n2cc(C)c(=O)[nH]c2=O)CC1F (configuration not stated) | 0.0158 µM | 2 µM | –
COc1ccc(OC)c(C(O)C(C)NC(C)(C)C)c1 (configuration not stated) | > 200 µM | > 200 µM | –
COc1cc(/C=C2\CCOC2=O)ccc1OCc1ccccc1 | > 32.4 µM | > 32.4 µM | –
O=C(/N=N/C(=O)N1CCCCC1)N1CCCCC1 | > 67.6 µM | 28.8 µM | –
CCN(CC)C(=O)c1ccc(O)c(OC)c1 | > 200 µM | > 200 µM | –
CC(C)OP(=O)(OC(C)C)/C(F)=N/Nc1ccc([N+](=O)[O-])cc1 | > 38.9 µM | > 38.9 µM | –
Clc1ccc2nc(CCSCCc3nc4ccc(Cl)cc4[nH]3)[nH]c2c1 | – | – | inactive
O=C1C2=Cc3ccccc3OC2(O)Oc2ccccc21 (configuration not stated) | > 200 µM | 23.4 µM | –
c1nc2c([nH]1)CCNC2c1ccc2c(c1)OCO2 (configuration not stated) | – | – | inactive
Clc1ccc(C2=NN(c3ccccc3)C3c4cc(Br)ccc4OCC23)cc1 (configuration not stated) | > 11.7 µM | > 11.7 µM | –
S=C(SSSSC(=S)N1CCCCC1)N1CCCCC1 | > 10.5 µM | 2.14 µM | –
